Reference: patent US20240066136A1, “MODIFIED PROTEINS AND PROTEIN DEGRADERS” (Cullgen (Shanghai), Inc., priority 2020, published 2024)

Legend:
CDK6 = CDK6 (Homo sapiens (Human), UniProt Q00534); experiment: Immunoblot of CDK6 protein in Calu-1 cells; assay type: cell-based; conditions: 1 μM, 16 hours after administration
Protocol: (§1) Additional heterobifunctional compounds were designed and tested for their ability to target and degrade another two target proteins, CDK4 and CDK6. Calu-1 cells that express CDK4/6 proteins were treated with heterobifunctional compounds disclosed herein (D-44 to D-49) at indicated concentrations for 16 hours. Cells were collected, lysed and subject to immunoblotting using an antibody specific to CDK4, CDK6 or phosphorylated Rb proteins. Tubulin was included as the loading control. DMSO treatment was used as the negative control. […] In addition, Calu-1 cells were treated with 1 μM D-48 or D-49 for an indicated period of time. Subsequently, changes in CDK4 and CDK6 protein levels were measured by immunoblotting. […] These experiments highlight the ability of DDB1 binder derived heterobifunctional compounds to degrade multiple different target proteins, including but not limited to epigenetic target proteins, such as CBP and p300, and kinases, such as CDK4 and CDK6.

Human DDB1 = Human DDB1 (Homo sapiens (Human), UniProt Q16531); experiment: Surface plasmon resonance (SPR) binding assay to immobilized His-DDB1; conditions: SPR, DDB1 binding moieties with linkers and/or target protein binding moiety; read-out: Binding (Kd)
Chain of Human DDB1 (Q16531 whole entry): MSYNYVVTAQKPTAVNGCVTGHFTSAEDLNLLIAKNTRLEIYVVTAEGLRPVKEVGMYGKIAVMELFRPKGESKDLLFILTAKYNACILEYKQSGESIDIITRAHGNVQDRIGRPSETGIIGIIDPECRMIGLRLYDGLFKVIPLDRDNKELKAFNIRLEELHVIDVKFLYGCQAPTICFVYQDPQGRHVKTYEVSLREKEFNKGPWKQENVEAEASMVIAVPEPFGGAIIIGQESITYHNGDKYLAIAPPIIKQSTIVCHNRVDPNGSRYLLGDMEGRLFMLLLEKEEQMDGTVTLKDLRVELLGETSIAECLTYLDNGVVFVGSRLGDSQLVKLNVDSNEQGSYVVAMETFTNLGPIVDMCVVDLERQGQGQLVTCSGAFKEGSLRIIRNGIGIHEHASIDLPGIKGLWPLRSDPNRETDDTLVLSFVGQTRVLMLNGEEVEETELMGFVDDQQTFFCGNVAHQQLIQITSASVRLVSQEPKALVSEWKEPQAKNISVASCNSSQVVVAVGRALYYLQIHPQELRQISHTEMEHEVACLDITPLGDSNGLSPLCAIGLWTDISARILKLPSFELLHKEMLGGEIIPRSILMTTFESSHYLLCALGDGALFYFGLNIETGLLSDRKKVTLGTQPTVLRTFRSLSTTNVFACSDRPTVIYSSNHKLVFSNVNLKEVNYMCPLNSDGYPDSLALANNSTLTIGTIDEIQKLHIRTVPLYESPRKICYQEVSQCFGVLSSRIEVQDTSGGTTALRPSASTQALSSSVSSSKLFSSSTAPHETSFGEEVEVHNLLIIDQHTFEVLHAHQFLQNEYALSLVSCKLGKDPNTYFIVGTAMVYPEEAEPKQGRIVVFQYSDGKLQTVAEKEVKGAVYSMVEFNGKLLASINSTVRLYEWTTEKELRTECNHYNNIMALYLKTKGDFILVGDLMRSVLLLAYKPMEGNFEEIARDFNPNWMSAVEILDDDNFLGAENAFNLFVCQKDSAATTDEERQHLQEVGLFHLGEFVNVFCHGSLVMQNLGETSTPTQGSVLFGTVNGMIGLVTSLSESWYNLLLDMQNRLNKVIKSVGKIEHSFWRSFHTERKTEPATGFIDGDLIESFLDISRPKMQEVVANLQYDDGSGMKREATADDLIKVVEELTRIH
Summary of the method: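 Baculovirus-expressed His-DDB1 (High5 cells) amine-coupled to 11,000–13,000 RU on a CM5 chip; compounds injected in multi-cycle format without regeneration at 25° C in HBS-EP pH 7.4 (120 s association/dissociation). Double-referenced, solvent-corrected data fit to steady-state affinity model for KD.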

CDK4 = CDK4 (Homo sapiens (Human), UniProt P11802); experiment: Immunoblot of CDK4 protein in Calu-1 cells; assay type: cell-based; conditions: 1 μM, 16 hours after administration
Chain of CDK4 (P11802 whole entry): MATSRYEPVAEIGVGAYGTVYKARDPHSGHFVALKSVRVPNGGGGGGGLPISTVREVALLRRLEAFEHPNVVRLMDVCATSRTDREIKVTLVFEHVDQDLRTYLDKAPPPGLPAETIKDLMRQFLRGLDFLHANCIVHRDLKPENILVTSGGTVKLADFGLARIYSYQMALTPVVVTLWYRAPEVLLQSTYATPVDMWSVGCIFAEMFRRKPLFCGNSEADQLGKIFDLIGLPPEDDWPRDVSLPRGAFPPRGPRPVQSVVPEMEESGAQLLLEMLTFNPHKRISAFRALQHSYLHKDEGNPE
Protocol: as §1

Chain of CDK6 (Q00534 whole entry): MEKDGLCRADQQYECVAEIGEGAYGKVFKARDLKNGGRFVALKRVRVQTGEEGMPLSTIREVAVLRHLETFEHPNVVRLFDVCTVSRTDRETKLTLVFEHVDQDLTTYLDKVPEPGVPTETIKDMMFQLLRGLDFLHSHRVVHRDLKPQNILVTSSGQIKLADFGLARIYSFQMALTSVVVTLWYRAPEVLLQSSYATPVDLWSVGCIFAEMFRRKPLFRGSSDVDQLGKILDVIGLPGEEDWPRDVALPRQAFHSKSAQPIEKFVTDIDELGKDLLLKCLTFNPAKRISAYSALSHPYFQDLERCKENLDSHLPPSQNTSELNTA

| degradation of CDK6 (CDK6) | Kd (Human DDB1) [µM] | degradation of CDK4 (CDK4) | SMILES |
| --- | --- | --- | --- |
| Significant degradation | < 20 | Significant degradation | CC(=O)Nc1cc(NCCOCCOCCOCCOCCOCCOCCNC(=O)CN2CCN(c3ccc(Nc4ncc5c(C)c(C(C)=O)c(=O)n(C6CCCC6)c5n4)nc3)CC2)ccc1C(=O)Nc1nc(C)c([N+](=O)[O-])s1 [D-49, 2-Acetamido-4-((1-(4-(6-((6-acetyl-8-cyclopentyl-5-methyl-7-oxo-7,8-dihydropyrido[2,3-d]pyrimidin-2-yl)amino)pyridin-3-yl)piperazin-1-yl)-2-oxo-6,9,12,15,18,21-hexaoxa-3-azatricosan-23-yl)amino)-N-(4-methyl-5-nitrothiazol-2-yl)benzamide] |
| Significant degradation | < 20 | Significant degradation | CC(=O)Nc1cc(NCCOCCOCCOCCOCCOCCNC(=O)CN2CCN(c3ccc(Nc4ncc5c(C)c(C(C)=O)c(=O)n(C6CCCC6)c5n4)nc3)CC2)ccc1C(=O)Nc1nc(C)c([N+](=O)[O-])s1 [D-48, 2-Acetamido-4-((1-(4-(6-((6-acetyl-8-cyclopentyl-5-methyl-7-oxo-7,8-dihydropyrido[2,3-d]pyrimidin-2-yl)amino)pyridin-3-yl)piperazin-1-yl)-2-oxo-6,9,12,15,18-pentaoxa-3-azaicosan-20-yl)amino)-N-(4-methyl-5-nitrothiazol-2-yl)benzamide] |
